Assay results reported in patent US20020045231A1, “Catalytic antibodies which hydrolyze primary amides and methods for eliciting such antibodies” (priority 1999, published 2002).
Square brackets hold non-standard residues; d marks the D form. Peptide text beside a SMILES is read from it. * marks the point of attachment. Sta = CC(C)C[C@H](N)[C@@H](O)CC(=O)O; Isovaleryl = CC(C)CC(=O)*

Experiments:
13D11 [1] = test: Effect of common protease inhibitors on the antibody-catalyzed reaction; format: biochemical, mouse; settings: inhibitor concentrations sufficient to abolish the respective proteases
Procedure: Extensive purification of 13D11 was carried out. Monoclonal antibodies were purified from ascites using standard procedures of lipid extraction and ammonium sulfate precipitation followed by column chromatography on protein A, DEAE, Mono Q, and finally Alkyl Superose (Pharmacia, Piscataway, N.J.). Finally, nine common inhibitors of known proteases were tested at concentrations sufficient to completely abolish all for their effect on the antibody-catalyzed reaction.

13D11 [2] = test: Inhibition of 13D11-catalyzed hydrolysis by haptens/inhibitors; format: biochemical, mouse
Procedure: Antibody 13D11 (14.5 μM) was re-screened for activity toward 10 (nominally 500 μM) in the absence and presence of 63 μM (RT-2 hapten)(D/L mixture).
Until this point, 13D11 antibody had been purified by Protein A and DEAE chromatography. To determine whether the activity toward 10 was due to a contaminating enzyme, 13D11 was further purified on a Mono Q column (Pharmacia) by FPLC.
Hapten Ki was determined by quantitating the effect of the concentration of 1b or 1c on the velocity of 13D11 hydrolysis of 2b. Rates obtained at fixed antibody and substrate concentrations were fitted to the equation; V1/Vo=(2[Ab]−[l]−Ki′+{([l]+Ki′−2[Ab])^2+4Ki′2[Ab]}^0.5)/4[Ab], where Vi and Vo are, respectively, the velocities in the presence and absence of hapten, 2[Ab] is the total concentration of antibody combining sites, [l] is hapten concentration, Ki′=Ki/(1+[S]/Km), and Ki is the inhibition constant (S. Cha, Biochem. Pharmacol. 1975, 24, 2177).
Control experiments verified that the hydrolytic activity was not due to a contaminating protease. […] (The (L)-hapten spatially corresponds to the (D)-amide substrate.) The inhibition constant, Ki, was determined by an HPLC assay to be 14.0 (±+1.6) μM.
The substrate specificity of 13D11 was more rigorously determined by monitoring its activity towards the dansylated amides 9 and 10, dansylated esters 11 and 12, acetylated amides 13 and 14, and acetylated esters 15 and 16. The esterolytic activity of 13D11 with the dansylated or acetylated esters (45 μM-1.0 mM) was examined at 25° C. in an assay mixture containing MTEN, 0.1 mM EDTA, 0.1 mM PMSF, 0.01% NaN3, and 13D11 (7-14 μM). Aliquots were removed from the incubation mixtures every hour for 4 hours and kept in ice prior to analysis. The dansylated esters were analyzed by TLC while the acetylated esters were subjected to HPLC analysis. […] The observed esterase activity may be due to a trace of a contaminating enzyme in the antibody preparation.
The amidase activity of 13D11 was likewise examined using the same buffer system as the one mentioned above in the presence of 13D11 (17 μM), and the acetylated amide 13 or 14 (0.5-1.0 mM). […] The ability of 13D11 to discriminate between the dansylated amides 9 and 10 was investigated by determining the formation of the hydrolysis product by TLC. The reaction samples containing 150 μM of either amide 9 or 100 30 μM 13D11, with or without hapten 5 (0.5 mM) in the above buffer system were assayed after 5 days of incubation at 25° C. […] Thus, the activity of the catalytic antibody requires the alkyl linker that was present during immunization, and has a stereospecificity opposite of known natural proteolytic enzymes.
An important control in the examination of the catalytic activity of 13D11 IgG molecule is the retention of the haptenic and substrate binding abilities by its Fab′ fragment. Accordingly, the amidase activities of 13D11 (whole IgG molecule) and the 13D11 Fab′ fragment were compared. The reaction mixtures contained MTEN, 1 mM EDTA, 0.1 mM PMSF, 0.01% NaN3, 150 μM dansylated amide 9 or 100 μM 13D11 (IgG) or Fab′, with or without (assumed) hapten 5 (0.5 mM). […] The esterase activity for the Fab′ fragment was also examined in the above buffer system containing 100 μM of either ester 11 or 12, and 7 μM 13D11 (Fab′). Aliquots were removed at various time points and analyzed by TLC. […] The contaminating enzyme in the antibody solution may have been removed during the purification of the Fab′ fragment.

| Molecule | effect on amidolytic activity of 13D11 (13D11 [1]) | also measured |
| --- | --- | --- |
| CC(C)C[C@H](NC(=O)[C@H]1O[C@@H]1C(=O)O)C(=O)NCCCCN=C(N)N [Compound E-64] | Partial inhibition | – |
| O=C(O)CN(CCN(CC(=O)O)CC(=O)O)CC(=O)O [EDTA] | essentially unaffected | – |
| CC(C)C[C@H](NP(=O)(O)O[C@@H]1O[C@@H](C)[C@H](O)[C@@H](O)[C@H]1O)C(=O)N[C@@H](Cc1c[nH]c2ccccc12)C(=O)O [phosphoramidon] | essentially unaffected | – |
| aprotinin | essentially unaffected | – |
| CC(C)C[C@H](NC(=O)[C@@H](O)[C@H](N)Cc1ccccc1)C(=O)O [bestatin] | Partial inhibition | – |
| CC(=O)NCCCCCC(=O)NC(Cc1ccccc1)P(C)(=O)O (centres unmarked) [Compound 5] | – | Ki (13D11 [2]; 13D11 hydrolysis of 10, HPLC assay, read-out: inhibition constant, Ki): 14 µM; inhibition of esterase activity toward 11 in the 13D11 preparation (13D11 [2]; 25° C., MTEN): not inhibited; inhibition of 13D11 amidase activity toward 10 (13D11 [2]; hapten 5 0.5 mM, 5 days at 25° C., TLC): inhibition of its amidase activity; inhibition of amidase activities of 13D11 IgG and Fab′ (13D11 [2]; hapten 5 0.5 mM, dansylated amide 10): inhibited; inhibition of 13D11 by hapten enantiomers (13D11 [2]; hydrolysis of 10): inhibited 13D11 |
| O=S(=O)(F)Cc1ccccc1 [PMSF] | essentially unaffected | – |
| CC(=O)N[C@@H](CC(C)C)C(=O)N[C@@H](CC(C)C)C(=O)N[C@H](C=O)CCCNC(=N)N [leupeptin] | essentially unaffected | – |
| O=S(=O)(O)CCNC1CCCCC1 [CHES] | – | effect of buffer on hydrolysis of 10 by 13D11 (13D11 [2]; CHES buffer tried as an alternative to Tris): inhibit the hydrolysis |
| CC(C)CC(=O)N[C@H](C(=O)N[C@H](C(=O)N[C@@H](CC(C)C)[C@@H](O)CC(=O)N[C@@H](C)C(=O)N[C@@H](CC(C)C)[C@@H](O)CC(=O)O)C(C)C)C(C)C [pepstatin] (Isovaleryl-VV[Sta]A[Sta]-OH) | Partial inhibition | – |
